# In patent US10875874B2, “Ginkgolide B derivative and preparation method and use thereof” (Chengdu Baiyu Ginkgolide Pharmaceuticals Co., Ltd., priority 2015, dated 2020):
# Marks after values point to notes of the source that are not given here.
# Columns and labels:
# physchem = conditions: water, thermodynamic from solid
# Description: Measuring method: samples are ground to obtain fine powder, target compounds are quantitatively weighed, the weighed compounds are added into purified water, and the solubility of the compounds is investigated by ultrasonics.
# [1] = test system: spontaneously hypertensive rats (SHR); assay: Caudal artery systolic pressure of spontaneously hypertensive rats, 8 weeks of continuous medication; format: in vivo, rat; conditions: x ± s, n = 8
# Outline: (§1)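 SHR rats of both sexes (200–250 g, 8/group) dosed intragastrically with 60 or 120 mg/kg/d, or captopril 27 mg/kg, once daily for 8 weeks; Wistar rats and vehicle SHR served as controls. Tail-cuff systolic pressure taken as the mean of 3 readings, measured before dosing and 30–120 min after the first dose, or 30 min post-dose on days 1–56 for chronic treatment.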
# [2] = Weekly body weight of SHR rats; format: in vivo, rat
# Outline: (§2)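 Male and female SHR rats (200-250 g, 8/group) dosed intragastrically once daily for 8 weeks with test compounds at 60 or 120 mg/kg/d or captopril 27 mg/kg; Wistar and SHR controls received distilled water. Body weight and food intake observed during treatment.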
# [3] = Weekly food intake of SHR rats; format: in vivo, rat
# Outline: as §2
# [4] = test system: spontaneously hypertensive rats (SHR); assay: Caudal artery systolic pressure of spontaneously hypertensive rats, single administration; format: in vivo, rat; conditions: x ± s, n = 8
# Outline: as §1
# [5] = 60 mg/kg/d intragastric, week 0
# [6] = 60 mg/kg/d intragastric, week 1
# [7] = 60 mg/kg/d intragastric, week 2
# [8] = 60 mg/kg/d intragastric, week 3
# [9] = 60 mg/kg/d intragastric, week 4
# [10] = 60 mg/kg/d intragastric, week 5
# [11] = 60 mg/kg/d intragastric, week 6
# [12] = 60 mg/kg/d intragastric, week 7
# [13] = 60 mg/kg/d intragastric, week 8
# [14] = 120 mg/kg/d intragastric, week 0
# [15] = 120 mg/kg/d intragastric, week 1
# [16] = 120 mg/kg/d intragastric, week 2
# [17] = 120 mg/kg/d intragastric, week 3
# [18] = 120 mg/kg/d intragastric, week 4
# [19] = 120 mg/kg/d intragastric, week 5
# [20] = 120 mg/kg/d intragastric, week 6
# [21] = 120 mg/kg/d intragastric, week 7
# [22] = 120 mg/kg/d intragastric, week 8
structure (smiles),measurement,setting,value
Cc1nc(C)c(CO[C@H]2C(=O)O[C@H]3O[C@]45C(=O)OC6C[C@@H](C(C)(C)C)C32[C@@]64[C@@H](O)[C@@H]2OC(=O)[C@@H](C)[C@@]25O)nc1C (some centres unmarked) [BM],solubility,physchem,250 µg/mL
same,Systolic pressure,"[1]; 60 mg/kg/d intragastric continuous, 1 d, 30 min after administration",155.25 ± 12.36 mmHg
same,Systolic pressure,"[1]; 60 mg/kg/d intragastric continuous, 7 d, 30 min after administration",154.85 ± 10.49 mmHg
same,Systolic pressure,"[1]; 60 mg/kg/d intragastric continuous, 13 d, 30 min after administration",153.26 ± 12.95 mmHg
same,Systolic pressure,"[1]; 60 mg/kg/d intragastric continuous, 19 d, 30 min after administration",156.74 ± 10.36 mmHg
same,Systolic pressure,"[1]; 60 mg/kg/d intragastric continuous, 25 d, 30 min after administration",154.75 ± 10.39 mmHg
same,Systolic pressure,"[1]; 60 mg/kg/d intragastric continuous, 35 d, 30 min after administration",151.48 ± 10.32 mmHg
same,Systolic pressure,"[1]; 60 mg/kg/d intragastric continuous, 49 d, 30 min after administration",151.17 ± 14.05 mmHg
same,Systolic pressure,"[1]; 60 mg/kg/d intragastric continuous, 56 d, 30 min after administration",154.64 ± 11.42 mmHg
same,Systolic pressure,"[1]; 60 mg/kg/d intragastric continuous, before administration",166.27 ± 14.01 mmHg
same,Systolic pressure,"[1]; 120 mg/kg/d intragastric continuous, 1 d, 30 min after administration",154.62 ± 5.74 mmHg
same,Systolic pressure,"[1]; 120 mg/kg/d intragastric continuous, 7 d, 30 min after administration",152.31 ± 10.56 mmHg
same,Systolic pressure,"[1]; 120 mg/kg/d intragastric continuous, 13 d, 30 min after administration",151.58 ± 12.06 mmHg
same,Systolic pressure,"[1]; 120 mg/kg/d intragastric continuous, 19 d, 30 min after administration",153.06 ± 10.41 mmHg
same,Systolic pressure,"[1]; 120 mg/kg/d intragastric continuous, 25 d, 30 min after administration",148.54 ± 11.62 mmHg
same,Systolic pressure,"[1]; 120 mg/kg/d intragastric continuous, 35 d, 30 min after administration",149.36 ± 10.75 mmHg
same,Systolic pressure,"[1]; 120 mg/kg/d intragastric continuous, 49 d, 30 min after administration",150.32 ± 9.59 mmHg
same,Systolic pressure,"[1]; 120 mg/kg/d intragastric continuous, 56 d, 30 min after administration",149.78 ± 11.64 mmHg
same,Systolic pressure,"[1]; 120 mg/kg/d intragastric continuous, before administration",163.45 ± 15.24 mmHg
same,Body weight,[2]; [5],231.5 g
same,Body weight,[2]; [6],236.8 g
same,Body weight,[2]; [7],245.7^▴▴ g
same,Body weight,[2]; [8],253.4 g
same,Body weight,[2]; [9],258.3 g
same,Body weight,[2]; [10],263.5^▴ g
same,Body weight,[2]; [11],271.3^▴▴ g
same,Body weight,[2]; [12],281.6^▴▴ g
same,Body weight,[2]; [13],292.5^▴▴ g
same,Body weight,[2]; [14],233.4 g
same,Body weight,[2]; [15],249.5^▴▴ g
same,Body weight,[2]; [16],256.8^▴▴ g
same,Body weight,[2]; [17],264.3^▴▴ g
same,Body weight,[2]; [18],271.6^▴▴ g
same,Body weight,[2]; [19],280.4^▴▴ g
same,Body weight,[2]; [20],290.5^▴▴ g
same,Body weight,[2]; [21],305.7^▴▴ g
same,Body weight,[2]; [22],315.8^▴▴ g
same,Average dairy food intake,[3]; [5],18.2 g/day
same,Average dairy food intake,[3]; [6],19.1^▴ g/d
same,Average dairy food intake,[3]; [7],19.9^▴ g/d
same,Average dairy food intake,[3]; [8],20.9^▴▴ g/d
same,Average dairy food intake,[3]; [9],21.3^▴▴ g/d
same,Average dairy food intake,[3]; [10],22.4^▴▴ g/d
same,Average dairy food intake,[3]; [11],23.1^▴▴ g/d
same,Average dairy food intake,[3]; [12],24.7^▴▴ g/d
same,Average dairy food intake,[3]; [13],25.5^▴▴ g/d
same,Average dairy food intake,[3]; [14],18.5 g/day
same,Average dairy food intake,[3]; [15],19.9^▴ g/d
same,Average dairy food intake,[3]; [16],20.7^▴▴ g/d
same,Average dairy food intake,[3]; [17],22.6^▴▴ g/d
same,Average dairy food intake,[3]; [18],22.9^▴▴ g/d
same,Average dairy food intake,[3]; [19],23.7^▴▴ g/d
same,Average dairy food intake,[3]; [20],24.4^▴▴ g/d
same,Average dairy food intake,[3]; [21],25.8^▴▴ g/d
same,Average dairy food intake,[3]; [22],27.6^▴▴ g/d
same,Systolic pressure,"[4]; 60 mg/kg intragastric single administration, 30 min",156.21 ± 9.68 mmHg
same,Systolic pressure,"[4]; 60 mg/kg intragastric single administration, 60 min",152.06 ± 9.78 mmHg
same,Systolic pressure,"[4]; 60 mg/kg intragastric single administration, 90 min",151.74 ± 13.15 mmHg
same,Systolic pressure,"[4]; 60 mg/kg intragastric single administration, 120 min",152.52 ± 15.06 mmHg
same,Systolic pressure,"[4]; 60 mg/kg intragastric single administration, before administration",166.27 ± 14.01 mmHg
same,Systolic pressure,"[4]; 120 mg/kg intragastric single administration, 30 min",149.04 ± 10.95 mmHg
same,Systolic pressure,"[4]; 120 mg/kg intragastric single administration, 60 min",151.58 ± 9.85 mmHg
same,Systolic pressure,"[4]; 120 mg/kg intragastric single administration, 90 min",153.65 ± 11.04 mmHg
same,Systolic pressure,"[4]; 120 mg/kg intragastric single administration, 120 min",151.00 ± 9.85 mmHg
same,Systolic pressure,"[4]; 120 mg/kg intragastric single administration, before administration",163.45 ± 15.24 mmHg
